# Laboratory results published in US20060234987A1, “Neuroprotective benzo 1 3 oxathiol 2 ones” (priority 2003, published 2006).
# “Also recorded” adds a separate entry of the source.
# What was measured:
# SCG neurons = experiment: Protection of SCG neurons from anti-NGF killing; format: cell-based, Sprague Dawley rats; settings: Rattus norvegicus, Neuron; anti-NGF antibody, 48 hours, Alamar Blue viability; read-out: IC50, rescue from anti-NGF killing of cultured SCG neurons
# Protocol: Neurotrophins are critical to the growth, development, and survival of small fiber neurons of the PNS. SCG neurons are neurons of the PNS that undergo apoptosis upon NGF withdrawal. In a typical experiment SCG neurons are cultured in the presence of NGF, which induces survival and neurite out-growth. After 5 days the NGF is removed by either the addition of anti-NGF polyclonal antibody (Sigma) or by repeated washings (4 times) with NGF free media, resulting in the apoptosis of up to 90% of the neurons after 48 hours, as measured by MTS staining. The addition of selected compounds of Formula I to the final cellular media provides upwards of 100% protection, at drug concentrations ranging from 10 to 50 μM (see Example 62).
# Protection of SCG neurons from anti-NGF killing. SCG neurons were isolated from day 1 neonatal Sprague Dawley rats, plated at a cell density of 5,000 cells/well, and incubated in Biowhittaker Ultraculture containing 1% Penstrep, 1% L-glutamine, 0.7% ARAC, 3% rat serum, and NGF (50 ng/mL, Calomone Labs), at 37° C., under a 5% CO2 atmosphere. After 4 days the cells were treated with anti-NGF antibody (Sigma). At this time compound was added and the cells were maintained serum and NGF free for 48 hours, at which time viability of the neurons was assessed using Alamar Blue (Medicorp) staining. Table 3 summarizes selected IC50 values from compounds tested using this protocol.
# PTP-1B = target: T1, PTP-1B (Homo sapiens, UniProt P18031); experiment: PTP-1B Assay; format: biochemical; settings: Table 6
# T1 construct: purchased BIOMOL Research Laboratories, Inc
# T1 sequence (P18031 1-435): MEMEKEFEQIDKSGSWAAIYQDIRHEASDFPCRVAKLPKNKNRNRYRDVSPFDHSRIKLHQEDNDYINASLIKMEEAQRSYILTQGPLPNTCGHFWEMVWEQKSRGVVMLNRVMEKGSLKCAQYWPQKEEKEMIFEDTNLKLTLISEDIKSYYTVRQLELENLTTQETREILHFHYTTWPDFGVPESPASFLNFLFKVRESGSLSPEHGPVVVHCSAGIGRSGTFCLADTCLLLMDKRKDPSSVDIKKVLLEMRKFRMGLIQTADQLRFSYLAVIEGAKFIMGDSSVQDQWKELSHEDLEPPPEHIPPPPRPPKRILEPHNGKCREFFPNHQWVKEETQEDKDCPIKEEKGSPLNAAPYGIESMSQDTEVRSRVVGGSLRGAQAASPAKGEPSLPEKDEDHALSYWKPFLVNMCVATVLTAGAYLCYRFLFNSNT
# Protocol: B) PTP-1B Assay: Inhibition of the phosphatase PTP1B was performed according to reported procedures (Puius, Y. A. et a. Proc. Natl. Acad. Sci., 1997, 94, 13420; Liu, F. J. Biol. Chem., 1996, 271, 31290). PTP1B was purchased from BIOMOL Research Laboratories, Inc.
# SCG ex-plant = experiment: Neurite out-growth in SCG ex-plants with minimal NGF; format: cell-based; settings: 30 μM compound, 1 ng/mL NGF, after 2 days
# Protocol: FIG. 3A is an SCG ex-plant cultured in the absence of NGF. No neurite extensions are visible. FIG. 3B. is an SCG ex-plant cultured in the presence of compound 23 (30 μM).
# In order to determine if these compounds were capable of augmenting NGF signaling in vitro, compound was added to cultured SCG neurons in the presence of ‘minimal’ quantities of NGF. […] Similar results were obtained using NGF differentiated PC12 cells (not shown).
# TrkA = TrkA Phosphorylation Assay in PC12 cells; format: cell-based; settings: compound 10-50 μM, NGF 10 ng/mL, compared with NGF 50 ng/mL, Western blot/autoradiograph
# Protocol: Lane PC12 624 cells not treated with NGF; Lane B—PC12 624 cells treated with NGF (50 ng/mL) for 24 hrs; Lane C—PC12 624 cells treated with NGF (50 ng/mL) for 30 minutes; Lane D—PC12 624 cells treated with NGF (10 ng/mL) and compound 23 (50 μM); Lane E—PC12 624 cells treated with NGF (10 ng/mL) and compound 23 (40 μM), Lane F—PC12 624 cells treated with NGF (10 ng/mL) and compound 23 (30 μM); Lane G—PC12 624 cells treated with NGF (10 ng/mL) and compound 23 (20 μM); Lane H—PC12 624 cells treated with a NGF (10 ng/mL) and compound 23 (10 μM); Lane I—PC12 624 cells treated with NGF (50 ng/mL) for 24 hours, and re-treated with NGF (50 ng/mL) for 30 minutes; Lane J—PC12 624 cells treated with NGF (50 ng/mL) for 30 minutes.
# TrkA phosphorylation may be monitored using Trk anti-bodies and Western blot analysis. […] In PC12 expressing cells, this effect is most robust at 30 minutes when 50 ng/mL of NGF is used.
# TrkA Phosphorylation Assay: Culture media was removed from cultured PC12 cells (106-107, 50% confluent) and media containing NGF (1 to 50 ng/mL), 0.1% BSA, and compound (1 to 30 μM) was added. The cells were incubated for 1 to 60 minutes, the media was removed and the cells washed twice with ice cold TBS solution. […]
PTP-1B IC50 (PTP-1B),Compound,IC50 (SCG neurons) [µM],neurite outgrowth (SCG ex-plant),TrkA phosphorylation (TrkA)
no inh.,"O=c1oc2c(Sc3ccc4ccccc4c3)cc(O)cc2s1 [Compound 23, 5-Hydroxy-7-((2-naphthy)sulfanyl)benzo[1,3]oxathiol-2-one]",25,Numerous ordered neurites are present; also recorded: visibly comparable to that observed under ‘optimal’ NGF concentrations,maintains the level of TrkA phosphorylation even after 24 hours; also recorded: Comparable levels of TrkA phosphorylation
no inh.,"O=c1oc2c(Sc3ccc4ccccc4c3)cc(O)c(Sc3ccc4ccccc4c3)c2s1 [Compound 30, 4,7-Bis-((2-naphthyl)sulfanyl)-5-hydroxybenzo[1,3]oxathiol-2-one]",> 30,,
